Laboratory results: article PMC8154581, “Discovery of Novel Thiophene-arylamide Derivatives as DprE1 Inhibitors with Potent Antimycobacterial Activities” (Journal of Medicinal Chemistry, 2021)
≈ marks a conversion by molar mass, not a printed value. Where “and” joins values, the source holds several entries; their conditions need not be identical. Identical values can stand only once. Like-named read-outs stand apart in the source and are kept apart here.

Legend:
M. tuberculosis = system: M. tuberculosis; parameters: method as in PMID 19299584, PMID 24500695; details: antimycobacterial activity; cited from earlier work
Vero cells = assay: Cytotoxicity assay in Vero cells (MTT); format: cell-based; details: for IC50: Chlorocebus sabaeus, Vero cells, 48 h, read-out: IC50 (Vero)
M. tuberculosis H37Rv = assay: MIC against replicating M. tuberculosis H37Rv, microplate Alamar blue assay (MABA); format: cell-based; details: Mycobacterium tuberculosis, H37RV
hERG K+ channel = hERG K+ channel (Homo sapiens, UniProt Q12809); assay: Inhibition of the hERG K+ channel, electrophysiology
hERG K+ channel, sequence (Q12809 whole entry): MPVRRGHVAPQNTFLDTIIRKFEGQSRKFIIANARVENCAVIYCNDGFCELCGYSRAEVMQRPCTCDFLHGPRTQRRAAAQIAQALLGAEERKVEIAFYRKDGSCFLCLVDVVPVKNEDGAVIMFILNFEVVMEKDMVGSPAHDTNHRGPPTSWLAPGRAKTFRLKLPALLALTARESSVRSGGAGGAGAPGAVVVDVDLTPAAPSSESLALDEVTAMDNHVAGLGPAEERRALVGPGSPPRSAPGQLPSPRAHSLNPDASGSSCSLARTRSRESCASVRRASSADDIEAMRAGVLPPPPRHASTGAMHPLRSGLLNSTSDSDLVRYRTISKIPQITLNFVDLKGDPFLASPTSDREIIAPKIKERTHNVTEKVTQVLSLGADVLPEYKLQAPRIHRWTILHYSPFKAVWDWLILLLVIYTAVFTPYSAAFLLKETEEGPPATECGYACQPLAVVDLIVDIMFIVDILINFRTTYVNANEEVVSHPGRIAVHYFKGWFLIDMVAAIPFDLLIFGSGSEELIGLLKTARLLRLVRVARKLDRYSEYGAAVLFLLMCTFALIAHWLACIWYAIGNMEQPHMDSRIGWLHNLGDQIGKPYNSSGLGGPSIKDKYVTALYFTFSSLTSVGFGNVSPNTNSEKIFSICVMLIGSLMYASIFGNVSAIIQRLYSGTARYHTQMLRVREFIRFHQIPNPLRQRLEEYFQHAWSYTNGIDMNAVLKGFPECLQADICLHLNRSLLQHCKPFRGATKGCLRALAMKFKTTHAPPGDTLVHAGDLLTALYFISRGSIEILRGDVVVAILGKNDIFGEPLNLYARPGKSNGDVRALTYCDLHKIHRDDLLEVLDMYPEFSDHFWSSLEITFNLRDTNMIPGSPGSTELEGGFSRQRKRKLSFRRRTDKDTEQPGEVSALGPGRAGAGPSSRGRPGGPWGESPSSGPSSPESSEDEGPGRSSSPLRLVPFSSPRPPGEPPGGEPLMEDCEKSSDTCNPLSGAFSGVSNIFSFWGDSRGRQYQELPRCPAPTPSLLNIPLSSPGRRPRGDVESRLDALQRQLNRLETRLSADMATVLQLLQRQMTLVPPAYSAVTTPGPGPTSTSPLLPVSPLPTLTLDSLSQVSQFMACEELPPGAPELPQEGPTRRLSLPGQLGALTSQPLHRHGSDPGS

[1] = Hepatocyte stability assay, mouse; details: male, mouse hepatocytes
[2] = system: M. tuberculosis (H37Rv) in infected mouse J774A.1 macrophages; format: cell-based
Mt-DprE1 = Mt-DprE1 (Mycobacterium tuberculosis, UniProt P9WJF1); format: biochemical, M. tuberculosis
Mt-DprE1, sequence (P9WJF1 whole entry, looked up): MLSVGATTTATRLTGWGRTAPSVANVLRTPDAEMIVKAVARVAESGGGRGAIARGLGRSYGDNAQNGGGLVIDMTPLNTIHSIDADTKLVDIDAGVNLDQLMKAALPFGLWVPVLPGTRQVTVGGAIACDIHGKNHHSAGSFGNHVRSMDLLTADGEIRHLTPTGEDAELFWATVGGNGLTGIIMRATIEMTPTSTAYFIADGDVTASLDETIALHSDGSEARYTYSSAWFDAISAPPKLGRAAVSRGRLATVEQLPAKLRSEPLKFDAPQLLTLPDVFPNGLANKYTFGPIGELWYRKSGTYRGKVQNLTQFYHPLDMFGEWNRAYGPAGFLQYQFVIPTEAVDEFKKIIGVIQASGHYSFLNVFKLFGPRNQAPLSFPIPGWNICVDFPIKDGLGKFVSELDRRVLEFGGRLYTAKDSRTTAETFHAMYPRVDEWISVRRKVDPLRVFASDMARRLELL

[3] = Hepatocyte stability assay, human; details: human hepatocytes
[4] = Cytotoxicity assay in HepG2 cells (MTT); details: human
[5] = against M. tuberculosis H37Rv, Tables 1-3, read-out: MIC
[6] = supplementary CSV, same values as Tables 1-3, read-out: Minimal inhibit concentration

C[C@H]1COC2(CCN(c3nc(=O)c4cc(C(F)(F)F)cc([N+](=O)[O-])c4s3)CC2)O1 [BTZ043]
MICs (M. tuberculosis): < 0.016 µg/mL

CCOC(=O)NC(=O)c1ccsc1NC(=O)c1ccc(C(=O)N2CCC2)cc1 [Compound 23h, Ethyl (2-(4-(Azetidine-1-carbonyl)benzamido)thiophene-3-carbonyl)carbamate]
SI (Vero cells): >76
IC50 (Vero cells): > 64 µg/mL
melting point: 182 to 183 °C
MIC (M. tuberculosis H37Rv; [5]): 0.84 µg/mL (≈ 2.09 µM)
MIC (M. tuberculosis H37Rv; [6]): 0.84 µg/mL (≈ 2.09 µM)

CCOC(=O)NC(=O)c1ccsc1NC(=O)c1ccc(C(=O)N2CCCCC2)cc1 [Compound 23j, Ethyl (2-(4-(Piperidine-1-carbonyl)benzamido)thiophene-3-carbonyl)carbamate]
IC50 (hERG K+ channel): 23.7 µM
half-life at 1 µM [1]: 56.4 min
remaining at 0.5 h, 1 µM [1]: 69.1%
log10 CFU/macrophages [2]: 4.45 ± 0.03 log10 CFU and 4.54 ± 0.01 log10 CFU
Δlog10 CFU [2]: 1.07 log10 CFU and 0.98 log10 CFU
IC50 DprE1 (Mt-DprE1): 0.3 ± 0.1 µg/mL (≈ 0.698 µM)
IC50 (Vero cells): > 64 µg/mL
half-life at 1 µM [3]: 50.8 min
remaining at 0.5 h, 1 µM [3]: 66.4%
MIC (M. tuberculosis H37Rv; [5]): 0.02 µg/mL (≈ 0.0466 µM)
MIC (M. tuberculosis H37Rv; [6]): 0.02 µg/mL (≈ 0.0466 µM)
IC50 at 48 h [4]: > 64 µg/mL

CCOC(=O)NC(=O)c1ccsc1NC(=O)c1ccc(C(=O)N2CCC(OC)CC2)cc1 [Compound 23m, Ethyl (2-(4-(4-Methoxypiperidine-1-carbonyl)benzamido)thiophene-3-carbonyl)carbamate]
SI (Vero cells): >533
IC50 (Vero cells): > 64 µg/mL
melting point: 160 to 161 °C
MIC (M. tuberculosis H37Rv; [5]): 0.12 µg/mL (≈ 0.261 µM)
MIC (M. tuberculosis H37Rv; [6]): 0.12 µg/mL (≈ 0.261 µM)

CCOC(=O)NC(=O)c1ccsc1NC(=O)c1ccc(C(=O)N2CCSCC2)cc1 [Compound 23p, Ethyl (2-(4-(Thiomorpholine-4-carbonyl)benzamido)thiophene-3-carbonyl)carbamate]
SI (Vero cells): 159
IC50 (Vero cells): 52.3 µg/mL (≈ 117 µM)
melting point: 178 to 179 °C
MIC (M. tuberculosis H37Rv; [5]): 0.33 µg/mL (≈ 0.737 µM)
MIC (M. tuberculosis H37Rv; [6]): 0.33 µg/mL (≈ 0.737 µM)

CCOC(=O)NC(=O)c1ccsc1NC(=O)c1ccc(C(=O)N2CCCCC2)cc1Cl [Compound 24c, Ethyl (2-(2-Chloro-4-(piperidine-1-carbonyl)benzamido)thiophene-3-carbonyl)carbamate]
SI (Vero cells): >142
IC50 (Vero cells): > 64 µg/mL
melting point: 59 to 60 °C
MIC (M. tuberculosis H37Rv; [5]): 0.45 µg/mL (≈ 0.97 µM)
MIC (M. tuberculosis H37Rv; [6]): 0.45 µg/mL (≈ 0.97 µM)

CCOC(=O)NC(=O)c1ccsc1NC(=O)c1ccc(C(=O)N2CCCCC2)cc1Br [Compound 24d, Ethyl (2-(2-Bromo-4-(piperidine-1-carbonyl)benzamido)thiophene-3-carbonyl)carbamate]
SI (Vero cells): >131
IC50 (Vero cells): > 64 µg/mL
melting point: 144 to 145 °C
MIC (M. tuberculosis H37Rv; [5]): 0.49 µg/mL (≈ 0.964 µM)
MIC (M. tuberculosis H37Rv; [6]): 0.49 µg/mL (≈ 0.964 µM)

CCOC(=O)NC(=O)c1ccsc1NC(=O)c1ccc(C(=O)N2CCCCC2)cc1[N+](=O)[O-] [Compound 24e, Ethyl (2-(2-Nitro-4-(piperidine-1-carbonyl)benzamido)thiophene-3-carbonyl)carbamate]
SI (Vero cells): >34
IC50 (Vero cells): > 64 µg/mL
melting point: 113 to 114 °C
MIC (M. tuberculosis H37Rv; [5]): 1.86 µg/mL (≈ 3.92 µM)
MIC (M. tuberculosis H37Rv; [6]): 1.86 µg/mL (≈ 3.92 µM)
